The supplement of paper PMC10883282

Assays:
[1] = system: A204; experiment: standardised AUC of viability dose-response curve (72 h) (fraction (0-1)); higher = less growth inhibition (more resistant)
Procedure, shortened: (§1)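 After 72 h with 2.5 µl of compound (compound-plate series 10 mM to 0.0002 mM), triplicate wells of sarcoma cell lines in 384-well plates were read with ATPLite, with viability scaled 1 (full) to 0 (none) and fitted with a four-parameter log-logistic model. The values give the standardised area under the dose-response curve in log-dose space from a modified drexplorer computeAUC. A value of 1 means no response and 0 means full response.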

[2] = system: SYO-1; experiment: as above
Procedure, shortened: as §1

[3] = system: VA-ES-BJ; experiment: as above
Procedure, shortened: as §1

[4] = system: KHOS-NP; experiment: as above
Procedure, shortened: as §1

[5] = system: MES-SA; experiment: as above
Procedure, shortened: as §1

[6] = system: SW1353; experiment: as above
Procedure, shortened: as §1

[7] = system: SK-ES-1; experiment: as above
Procedure, shortened: as §1

[8] = system: SK-LMS-1; experiment: as above
Procedure, shortened: as §1

[9] = system: G401; experiment: as above
Procedure, shortened: as §1

[10] = system: SW982; experiment: as above
Procedure, shortened: as §1

[11] = system: RD; experiment: as above
Procedure, shortened: as §1

[12] = system: HS729; experiment: as above
Procedure, shortened: as §1

[13] = system: SW684; experiment: as above
Procedure, shortened: as §1

[14] = system: HT1080; experiment: as above
Procedure, shortened: as §1

[15] = system: RD-ES; experiment: as above
Procedure, shortened: as §1

[16] = system: SW872; experiment: as above
Procedure, shortened: as §1

[17] = system: KHOS-240S; experiment: as above
Procedure, shortened: as §1

[18] = system: A204; experiment: relative viability vs DMSO control (72 h) (fraction); higher = more viable cells
Procedure, shortened: (§2)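 A 5 µM positive control and 0.1% DMSO vehicle ran alongside sarcoma cell lines seeded in 384-well plates to reach 80–90% confluence. Serially diluted compound, 2.5 µl from source plates of 10 mM to 0.0002 mM, was added after 24 h, and the plates were held 72 h at 37 °C, 5% CO2. Relative viability was worked out from ATPLite readings as percent growth averaged over up to triplicate wells. The values were rescaled so that 1 is full and 0 is none.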

[19] = system: SYO-1; experiment: as above
Procedure, shortened: as §2

[20] = system: SW982; experiment: as above
Procedure, shortened: as §2

[21] = system: HS729; experiment: as above
Procedure, shortened: as §2

[22] = system: KHOS-240S; experiment: as above
Procedure, shortened: as §2

CN(C)CCCOc1ccc(-c2ccc3ncc4c(c3c2)n(C2CCOCC2)c(=O)n4C)cn1 [AZD-0156]
Conditions | standardised AUC
[1] | 0.854
[2] | 0.777
[3] | 0.753
[4] | 0.975
[5] | 0.887
[6] | 0.917
[7] | 0.748
[8] | 0.858
[9] | 0.963
[10] | 0.752
[11] | 0.921
[12] | 0.883
[13] | 0.891
[14] | 0.991
[15] | 0.785
[16] | 0.749
[17] | 0.914

relative viability
Conditions | [18] | [19] | [20] | [21] | [22]
0.00017 µM | 1.08 | 1 | 1.05 | 1 | 1.08
0.00051 µM | 1.1 | 1.01 | 1.08 | 1.02 | 1.1
0.00152 µM | 1.07 | 0.983 | 1.06 | 1.01 | 1.1
0.00457 µM | 1.1 | 0.949 | 1.05 | 0.968 | 1.08
0.01372 µM | 1.04 | 0.869 | 1.03 | 0.937 | 1.06
0.04115 µM | 1.01 | 0.891 | 0.964 | 0.9191 | 1.03
0.1235 µM | 0.919 | 0.737 | 0.828 | 0.857 | 1.04
0.3704 µM | 0.84 | 0.701 | 0.619 | 0.833 | 0.99
1.111 µM | 0.704 | 0.534 | 0.484 | 0.766 | 0.865
3.333 µM | 0.766 | 0.526 | 0.349 | 0.758 | 0.814
10 µM | 0.628 | 0.259 | 0.218 | 0.519 | 0.587

COC(=O)c1ccc2c(c1)NC(=O)/C2=C(\Nc1ccc(N(C)C(=O)CN2CCN(C)CC2)cc1)c1ccccc1 [Nintedanib]
relative viability
Conditions | [18] | [19] | [20] | [21] | [22]
0.00017 µM | 1.04 | 1 | 0.999 | 0.981 | 1.05
0.00051 µM | 1.04 | 0.985 | 0.996 | 1 | 1.05
0.00152 µM | 1.02 | 0.971 | 1 | 1.01 | 1.04
0.00457 µM | 0.997 | 0.97 | 0.994 | 0.99 | 1.04
0.01372 µM | 0.831 | 0.901 | 0.975 | 1.04 | 1.04
0.04115 µM | 0.566 | 0.713 | 0.965 | 0.973 | 1.02
0.1235 µM | 0.434 | 0.643 | 1 | 0.929 | 0.985
0.3704 µM | 0.392 | 0.467 | 0.961 | 0.863 | 0.875
1.111 µM | 0.376 | 0.369 | 0.87 | 0.738 | 0.702
3.333 µM | 0.318 | 0.292 | 0.823 | 0.626 | 0.6
10 µM | 0.22 | 0.099 | 0.0461 | 0.119 | 0.101

Cc1[nH]c(/C=C2\C(=O)Nc3ccccc32)c(C)c1CCC(=O)O [Orantinib]
relative viability
Conditions | [18] | [19] | [20] | [21] | [22]
0.00017 µM | 1.07 | 1.012 | 1.06 | 1.07 | 1.04
0.00051 µM | 1.12 | 1.01 | 1.11 | 1.09 | 1.07
0.00152 µM | 1.12 | 1.02 | 1.1 | 1.08 | 1.087
0.00457 µM | 1.09 | 1.02 | 1.1 | 1.06 | 1.06
0.01372 µM | 1.14 | 1.01 | 1.09 | 1.04 | 1.05
0.04115 µM | 1.086 | 1.03 | 1.1 | 1.04 | 1.065
0.1235 µM | 1.13 | 0.997 | 1.08 | 0.997 | 1.08
0.3704 µM | 1.05 | 0.979 | 1.044 | 0.966 | 1.09
1.111 µM | 1.03 | 0.973 | 1.01 | 0.923 | 1.03
3.333 µM | 0.976 | 0.945 | 0.935 | 0.923 | 1.06
10 µM | 0.881 | 0.799 | 0.931 | 0.889 | 0.963

CC(=O)c1c(C)c2cnc(Nc3ccc(N4CCNCC4)cn3)nc2n(C2CCCC2)c1=O [Palbociclib]
relative viability
Conditions | [18] | [19] | [20] | [21] | [22]
0.00017 µM | 1.05 | 1.01 | 1.03 | 1.05 | 1.07
0.00051 µM | 1.07 | 1 | 1.08 | 1.02 | 1.07
0.00152 µM | 1.07 | 1.01 | 1.06 | 1.06 | 1.08
0.00457 µM | 1.08 | 0.9555 | 1.05 | 1.01 | 1.07
0.01372 µM | 1.03 | 0.903 | 1.01 | 1.05 | 1.07
0.04115 µM | 0.987 | 0.8 | 0.936 | 0.965 | 1.01
0.1235 µM | 0.808 | 0.702 | 0.845 | 0.987 | 0.945
0.3704 µM | 0.777 | 0.649 | 0.737 | 0.984 | 0.843
1.111 µM | 0.649 | 0.621 | 0.6424 | 0.844 | 0.734
3.333 µM | 0.556 | 0.523 | 0.487 | 0.849 | 0.681
10 µM | 0.39 | -0.000667 | 0.222 | 0.933 | 0.607
